The results in this text go back to US20110162437A1, “Biomarker for Mitochondrial Toxicity Associated with Phospholipidosis” (priority 2006, published 2011).

“And” between values parts separate entries of the source, which are not always exact repeats. Identical values can stand only once. “Also recorded” adds a separate entry of the source.

Usually pKa stands for the pH at which an ionisable group is half protonated. The low end stands for a stronger acid or weaker base, the high end for a weaker acid or stronger base.

In one data set the test system is Male Wistar rats. Put plainly: PAG measurement by 1H NMR in urine after single oral dose, ratio versus time-matched controls. The following applies: for PAG: urine, individual animals. The class given is in vivo, rat. As to the method:
(§1) All animals received (human) care as specified by Swiss law and in accordance with the “Guide for the care and use of laboratory animals” published by the NIH. Male Wistar rats (5 animals/dose-group) were purchased from RCC (Füllingsdorf, Switzerland) and housed individually. Treated animals were dosed orally by gavage with several doses of test compounds (Table 1). Control animals received the same volume of vehicle as placebo. Necropsy was performed 48 (subgroup A) or 168 hours (subgroup B) after a single administration (=Day 1) and urine samples were collected in metabolism cages at 0 to 4° C. (automatically refrigerated by a Tecniplast sampling/cooling unit (RACK B940, Tecniplast, USA)) at the intervals given in the sampling schedule in Table 2 into labelled sample tubes containing 1 ml of an aqueous Na-azide (1%) solution. Before aliquoting, urine volumes were determined.
Urine samples were taken on day -7,-2,-1, 1, 2, 3, 4, 5, 6 and 7, whereby Day 1 was the Day of dosing.
Immediately after reaching the end of the sampling period, the volume was determined and the samples were centrifuged at 3000 u/min (500 g) for 10 minutes.
Aliquot: Approximately 2 ml was transferred in 1.8 ml cryvials, round bottom, freestanding, with screw caps and septum for NMR-spectroscopic examinations (Bruker Analytik GmbH, Rheinstetten, Germany, Bruker part No. 85372). The vials were stored at −80° C.
Urine samples were prepared and measured on a Bruker 500 MHz NMR instrument according to the COMET 1H-NMR protocol (Keun, H. C et al., (2002) Physiological variation and analytical reproducibility in metabonomic urinalysis. Chem. Res. Tox. 15, 1380-1386) and as described above. In total 467 urine samples were analyzed. After measurement, all data were processed by XWINMR 3.5.6 (Bruker Biospin AG, Fällanden). Representative spectra are depicted in FIG. 2. Phase correction and baseline correction were performed with NMRPROC 0.3 (T. Ebbels, H. Keun; Imperial College). Spectral data were binned using AMIX 2.6 (Bruker Biospin AG, Fällanden) following the COMET Data Processing & Pattern Recognition protocol (Keun, H. C., et al., (2002) Physiological variation and analytical reproducibility in metabonomic urinalysis. Chem. Res. Tox. 15, 1380-1386). QC check procedures (Dieterle F., Ross A., Schlotterbeck G., Senn H. (2006) Probabilistic Quotient Normalization as Robust Method to Account for Dilution of Complex Biological Mixtures. Application in 1H NMR Metabonomics. Anal. Chem. 78, 4281-4290) were applied on binned data to detect outliers. In total 7 outliers were detected and removed from further analysis. All data were mean-centered and normalized using the probabilistic quotient normalization (Dieterle F., Ross A., Schlotterbeck G., Senn H. (2006) Probabilistic Quotient Normalization as Robust Method to Account for Dilution of Complex Biological Mixtures. Application in 1H NMR Metabonomics. Anal. Chem. 78, 4281-4290.). All binned data were annotated and transferred to the ANT (ANT: Affymetrix NMR Toxicology Data System) database.
The exact PAG quantification was performed according to following procedure: • Baseline subtraction of spectra • Integration of PAG peaks ((=7.47 ppm, (=7.39 ppm, (=3.79 ppm, and (=3.7 ppm respectively) and Citrate region ((=2.66-2.74 ppm and 2.50-2.58 ppm). • Quotient normalization (Dieterle F., Ross A., Schlotterbeck G., Senn H. (2006) Probabilistic Quotient Normalization as Robust Method to Account for Dilution of Complex Biological Mixtures. Application in 1H NMR Metabonomics. Anal. Chem. 78, 4281-4290.) • Divide each of the PAG bins by its average (all spectra) to correct for different relaxation times and number of protons • Calculate median out of the PAG bins • Calculate ratio versus time-matched controls

The test system of a further data set is lymphocytes. Nature of the data set: Electron microscopic examination of buffy coat lymphocytes for lamellar bodies (determination of phospholipidosis). The following applies: for lymphocytes %, pos. / lymphocytes positive (with lamellar bodies): individual rats, 1000 mg/kg/day. It is filed as in vivo, rat. As to the method:
as §1
Blood samples (as much as possible) were withdrawn from all animals at necropsy at about 48 hours after dosing (subgroup A) and about 168 hours after dosing (subgroup B)
The samples were collected from the abdominal aorta or by cardiac puncture under terminal anaesthesia (CO2). A total of at least 2 ml blood was required to gain buffy coat (buffy coat=leukocyte band) samples.
After fixation in 2.5% glutaraldehyde, the buffy coat samples from all animals were embedded in Epon. […] All thin sections were examined ultrastructurally. If possible, 200 lymphocytes per sample were examined for lamellar bodies. The results per sample include the total number of lymphocytes examined, the total number of positive lymphocytes (i.e. with lamellar bodies), the percentage of positive lymphocytes and a grading of severity of phospholipidosis (criteria see table 4)

The nature of another data set: basic pKa value. It is filed as physicochemical.
Data set [1] in a line: potential to induce phospholipidosis judged from amphiphilicity and basic pKa. To be noted: from reduced amphiphilicity and basic pKa. From the text: The structural difference between both molecules can be mainly characterized by the exchange of the piperazine against a morpholine moiety in compound 2.
Setting [2] is: necropsy 48 hours after application.
The mark [3] stands for this setting: necropsy 168 hours after application.

Turning to `CN(C(=O)C(C)(C)c1cc(C(F)(F)F)cc(C(F)(F)F)c1)c1cnc(N2CCOCC2)cc1-c1ccccc1Cl` [Compound 2, 2-(3,5-Bis-trifluoromethyl-phenyl)-N-[4-(2-chloro-phenyl)-6-morpholin-4-yl-pyridin-3-yl]-N-methyl-isobutyramide], the PAG is 0.3191 and 0.4082 and 0.1757 and 0.4688 and 0.3904 and 0.3807 and 0.4568 and 0.5015 and 0.3805 and 0.4405 in the data set with Male Wistar rats (High_Dose group, Time 0 (within 8 hours before treatment)); 0.6552 and 0.2654 and 0.3244 and 0.3661 and 0.5090 and 0.8253 and 0.6223 and 0.6794 and 0.5865 and 0.5553 in the data set with Male Wistar rats (High_Dose group, Time 8 (within 8 hours after treatment)); 0.4048 and 0.3363 and 0.1408 and 0.3750 and 0.4284 and 0.6538 and 0.4408 and 0.2588 and 0.4111 and 0.3592 in the data set on Male Wistar rats (High_Dose group, Time 24 (within 8 to 24 hours after treatment)); 0.6280 and 0.3499 and 0.4531 and 0.5078 and 0.6008 and 0.3961 and 0.6035 and 0.5396 and 0.6968 with Male Wistar rats (High_Dose group, Time −16 (1 day before treatment)); 0.5320 and 0.2568 and 0.4805 and 0.4717 and 0.4514 and 0.4760 and 0.6419 and 0.7515 and 0.6794 and 0.7696 with Male Wistar rats (High_Dose group, Time −40 (2 days before treatment)); 0.6632 and 0.5179 and 0.2795 and 0.6376 and 0.3104 and 0.3524 and 0.4991 and 0.5273 and 0.2959 and 0.3191 with Male Wistar rats (Low_Dose group, Time 0 (within 8 hours before treatment)). Besides, the PAG with Male Wistar rats (Low_Dose group, Time 8 (within 8 hours after treatment)) is 0.8897 and 0.6310 and 0.3915 and 1.2919 and 0.3580 and 0.9744 and 0.3039 and 0.7208 and 0.6353 and 0.4304; in the data set with Male Wistar rats (Low_Dose group, Time 24 (within 8 to 24 hours after treatment)) it was 0.6934 and 0.3762 and 0.4835 and 0.8446 and 0.3743 and 0.5615 and 0.3777 and 0.4892 and 0.3393 and 0.4166; in the data set with Male Wistar rats (Low_Dose group, Time 48 (2 days after treatment)), 0.6453 and 0.3298 and 0.3762 and 0.7958 and 0.1879; in the data set on Male Wistar rats (Low_Dose group, Time −16 (1 day before treatment)), 1.0275 and 1.1002 and 0.4610 and 1.3440 and 0.2541 and 0.7357 and 0.5260 and 0.6162 and 0.5218 and 0.4132; in the data set with Male Wistar rats (Low_Dose group, Time −40 (2 days before treatment)) it was 0.3418 and 0.5238 and 0.5336 and 0.7115 and 0.6105 and 0.5232. For the same compound, the “PAG levels of both dose groups versus time matched controls” value in the data set on Male Wistar rats (rat, single oral dose 300 and 1000 mg/kg) is on record as “comparable to their time matched controls”. Moreover, in the data set with Male Wistar rats (rat, single oral dose, both dose groups, normalized to time matched controls), the “dose dependant change of PAG levels in urine” value is recorded as “No significant dose dependant change”. Also, the “lymphocytes %, pos.” value in the data set on lymphocytes (setting [2]) and in the data set with lymphocytes (setting [3]) was 0% throughout. For the same compound, the “lymphocytes positive (with lamellar bodies)” value in the data set with lymphocytes (setting [2]) and in the data set with lymphocytes (setting [3]) was 0 in each case. Also, the “lymphocytes containing cytoplasmic lamellar bodies (finding in words)” value in the data set with lymphocytes (rats, single oral dose, necropsy 48 or 168 hours after application) is “did not show any lymphocytes with lamellar bodies; also recorded: not affected; also recorded: did not show any lymphocytes containing cytoplasmic lamellar bodies”. The pKa in “basic pKa value” turned out to be 4.07. In addition, the “potential to induce phospholipidosis” value in data set [1] is “low potential”.
